{"source": "patent US20160113925A1", "about": "“METHODS OF TREATING CANCER WITH A COMBINATION OF GLUCOSE MODULATORS AND BCL-2 INHIBITORS” (EMORY UNIVERSITY, priority 2014, published 2016)", "format_in_all_cases": "cell-based", "key": {"[1]": {"test_system": "L363, KMS11, MM.1S and AMO1 cell lines", "experiment": "Metabolic supplementation of glutamine deprived MM cell lines: reversal of sensitization to ABT-199", "conditions": "glutamine deprived L363, KMS11, MM.1S and AMO1 cell lines supplemented with metabolite", "source_text": "The metabolic specificity of glutamine deprivation-induced sensitization to ABT-199 […]. Glutamine deprived cells were supplemented with various metabolites generated by metabolism of glutamine and evaluated for their ability to reverse sensitization to ABT-199. Glutamine deprived MM cell lines were supplemented with galactose, dimethyl fumarate, dimethyl succinate, oxaloacetic acid, 2 methyl pyruvate, a mixture of non-essential amino acids or cell permeant dimethyl alpha ketoglutarate (DMK)."}, "MM cell lines": {"test_system": "MM cell lines", "experiment": "Sensitization of MM cell lines to ABT-199 (venetoclax) by ritonavir or DON", "conditions": "MM cell lines cultured with ritonavir (40 uM) or DON (0.1 mM); FIGS. 1 and 2", "source_text": "(§1) Ritonavir is an HIV […] that is also a reversible non-competitive inhibitor of glucose transport through GLUT4. […] Glutamine antagonist DON (6-Diazo-5-oxo-L-norleucine) effectively block first step of glutaminolysis pathway and thus restrict cells for using glutamine."}, "MM patient samples": {"test_system": "MM patient samples", "experiment": "Sensitization of MM patient samples to ABT-199 (venetoclax) by ritonavir or DON", "conditions": "for efficacy of the combination with ABT-199 (venetoclax) in patient samples: highly responsive samples were from relapse refractory patients", "source_text": "as §1"}, "MM lines": {"test_system": "MM lines", "experiment": "Impact of glucose or glutamine withdrawal on sensitivity of MM lines to ABT-199 (venetoclax)", "description": "Eight MM cell lines were assessed for induction of apoptosis upon culture in media deprived of glucose, glutamine or both nutrients. While all cells are growth inhibited the extent of apoptosis elicited was highly variable. […] Continued survival upon nutrient deprivation despite induction of BIM could be due to increased sequestration of BIM with the induced BCL-2. […] The BH3 mimetic ABT-199 (venetoclax) targets the BIM-BCL-2 interaction. The impact of either glucose or glutamine withdrawal on sensitivity to ABT-199 (venetoclax) was evaluated."}}, "note": "Counter-ions that a name gives are not always drawn.", "data": [{"compound": "COC(=O)/C=C/C(=O)OC", "note": "[dimethyl fumarate]", "values": [{"measurement": "reversal of glutamine deprivation-induced sensitization to ABT-199", "setting": "[1]", "value": "only the addition of DMK reversed sensitization"}]}, {"compound": "O=C(O)CC(=O)C(=O)O", "note": "[oxaloacetic acid]", "values": [{"measurement": "reversal of glutamine deprivation-induced sensitization to ABT-199", "setting": "[1]", "value": "only the addition of DMK reversed sensitization"}]}, {"compound": "[N-]=[N+]=CC(=O)CC[C@H](N)C(=O)O", "note": "[DON, 6-Diazo-5-oxo-L-norleucine]", "values": [{"measurement": "sensitivity to ABT-199 (venetoclax) in MM cell lines", "setting": "MM cell lines", "value": "increased sensitivity"}, {"measurement": "sensitivity to ABT-199 (venetoclax) in patient samples", "setting": "MM patient samples", "value": "increased sensitivity"}, {"measurement": "efficacy of the combination with ABT-199 (venetoclax) in patient samples", "setting": "MM patient samples", "value": "highly efficacious"}]}, {"compound": "CC(C)c1nc(CN(C)C(=O)N[C@H](C(=O)N[C@@H](Cc2ccccc2)C[C@H](O)[C@H](Cc2ccccc2)NC(=O)OCc2cncs2)C(C)C)cs1", "note": "[Ritonavir, 1,3-thiazol-5-ylmethyl N-[(2S,3S,5S)-3-hydroxy-5-[[(2S)-3-methyl-2-[[methyl-[(2-propan-2-yl-1,3-thiazol-4-yl)methyl]carbamoyl]amino]butanoyl]amino]-1,6-diphenylhexan-2-yl]carbamate]", "values": [{"measurement": "sensitivity to ABT-199 (venetoclax) in MM cell lines", "setting": "MM cell lines", "value": "significantly increased sensitivity"}, {"measurement": "sensitivity to ABT-199 (venetoclax) in patient samples", "setting": "MM patient samples", "value": "significantly increased sensitivity"}, {"measurement": "efficacy of the combination with ABT-199 (venetoclax) in patient samples", "setting": "MM patient samples", "value": "highly efficacious"}]}, {"compound": "COC(=O)CCC(=O)OC", "note": "[dimethyl succinate]", "values": [{"measurement": "reversal of glutamine deprivation-induced sensitization to ABT-199", "setting": "[1]", "value": "only the addition of DMK reversed sensitization"}]}, {"compound": "venetoclax [ABT-199 (venetoclax)]", "values": [{"measurement": "sensitization of MM lines to ABT-199 (venetoclax) on nutrient withdrawal", "setting": "MM lines", "value": "sensitize all MM lines"}]}, {"compound": "COC(=O)C(C)=O", "note": "[2 methyl pyruvate]", "values": [{"measurement": "reversal of glutamine deprivation-induced sensitization to ABT-199", "setting": "[1]", "value": "only the addition of DMK reversed sensitization"}]}, {"compound": "O=C[C@H](O)[C@@H](O)[C@@H](O)[C@H](O)CO", "note": "[galactose]", "values": [{"measurement": "reversal of glutamine deprivation-induced sensitization to ABT-199", "setting": "[1]", "value": "only the addition of DMK reversed sensitization"}]}, {"compound": "COC(=O)CCC(=O)C(=O)OC", "note": "[DMK, dimethyl alpha ketoglutarate]", "values": [{"measurement": "reversal of glutamine deprivation-induced sensitization to ABT-199", "setting": "[1]", "value": "reversed sensitization"}]}]}
